ChEMBL document CHEMBL5365506, “Novel Haloacethydrazides as AEP Inhibitors for Treating Alzheimer's Disease” (ACS Med Chem Lett, 2023)

target: T1, Legumain (Homo sapiens, UniProt Q99538); test: Inhibition of human 8His-tagged AEP (V18 to Y433 residues) using Z-Ala-Ala-Asn-Rhl 10-(D-Pro) as substrate incubated for 30 mins followed by substrate addition by fluorescence based microplate reader analysis
T1 sequence (Q99538 whole entry): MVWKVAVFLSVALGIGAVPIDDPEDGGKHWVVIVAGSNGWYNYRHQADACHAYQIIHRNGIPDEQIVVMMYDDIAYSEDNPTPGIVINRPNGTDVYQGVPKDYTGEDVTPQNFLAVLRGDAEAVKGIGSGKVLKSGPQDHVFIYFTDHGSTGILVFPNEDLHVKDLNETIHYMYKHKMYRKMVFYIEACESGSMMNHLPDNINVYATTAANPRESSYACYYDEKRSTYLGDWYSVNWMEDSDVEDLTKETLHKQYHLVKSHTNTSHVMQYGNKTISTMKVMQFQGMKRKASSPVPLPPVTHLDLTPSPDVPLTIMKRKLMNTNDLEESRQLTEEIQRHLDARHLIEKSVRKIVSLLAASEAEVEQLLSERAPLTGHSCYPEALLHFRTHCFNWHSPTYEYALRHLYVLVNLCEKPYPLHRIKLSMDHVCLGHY

With `C#CCOc1ccc(C2(C(=O)N3CCC[C@H]3C(=O)NN(CC(N)=O)C(=O)CF)CC2)cc1` as the compound, how does the IC50 read?
The IC50 was 1 nM.

How did the IC50 turn out when `COc1ccc(-c2ccc(S(=O)(=O)N3CCC[C@H]3C(=O)NN(CC(N)=O)C(=O)CF)cc2)cc1` was run?
Its IC50 is 1 nM.

For `NC(=O)CN(NC(=O)[C@@H]1CCCN1C(=O)C1(c2ccc(Cl)cc2)CCC1)C(=O)CF`, which IC50 is on record?
Its IC50 is 1 nM.

`C#Cc1ccc(C2(C(=O)N3CCC[C@H]3C(=O)NN(CC(N)=O)C(=O)CF)CC2)cc1` was tested. Which IC50 did it give?
Its IC50 is 1 nM.
